Laboratory results from ChEMBL document CHEMBL5126512, “Current status of carbazole hybrids as anticancer agents” (Eur J Med Chem, 2022).

Assays:
HeLa [1] = test: Antiproliferative activity against human HeLa cells assessed as cell growth inhibition by MTT assay; format: functional, cell-based
HeLa [2] = test: Potency index, ratio of cisplatin IC50 to compound IC50 for antiproliferative activity against human HeLa cells by MTT assay; format: functional
ASPC1 = test: Anticancer activity against human ASPC1 cells assessed as cell growth inhibition measured after 72 hrs by Cell-Titre Glo luminescent cell viability assay; format: functional, cell-based; conditions: ASPC1, 72 h
SW1990 = test: Anticancer activity against human SW1990 cells assessed as cell growth inhibition measured after 72 hrs by Cell-Titre Glo luminescent cell viability assay; format: functional, cell-based; conditions: SW1990, 72 h
[3] = Cytotoxicity against human MRC5 cells assessed as cell growth inhibition measured after 72 by Cell-Titre Glo luminescent cell viability assay; format: toxicity, cell-based
[4] = Cytotoxicity against human ARPE-19 cells assessed as cell growth inhibition measured after 72 by Cell-Titre Glo luminescent cell viability assay; format: toxicity, cell-based
A498 = test: Antiproliferative activity against human A498 cells assessed as cell growth inhibition measured after 72 hrs by SRB assay; format: functional, cell-based; conditions: A498, 72 h
A549 [5] = test: Antiproliferative activity against human A549 cells assessed as cell growth inhibition measured after 72 hrs by SRB assay; format: functional, cell-based; conditions: A549, 72 h
[6] = Cytotoxicity against human NHDF cells assessed as cell growth inhibition measured after 72 hrs by SRB assay; format: toxicity, cell-based
K562 = test: Cytotoxicity activity against human K562 cells assessed as cell growth inhibition measured after 72 hrs by MTT assay; format: functional, cell-based; conditions: K562, 72 h
[7] = Cytotoxicity activity against African green monkey vero cells assessed as cell growth inhibition measured after 72 hrs by MTT assay; format: toxicity, cell-based, Chlorocebus sabaeus
[8] = Cytotoxicity activity against human PBMC cells assessed as cell growth inhibition measured after 72 hrs by MTT assay; format: toxicity, cell-based
HCT-116 = test: Antiproliferative activity against human HCT-116 cells assessed as cell growth inhibition measured after 48 hrs by MTT assay; format: functional, cell-based; conditions: HCT-116, 48 h
HT-29 = test: Antiproliferative activity against human HT-29 cells assessed as cell growth inhibition measured after 48 hrs by MTT assay; format: functional, cell-based; conditions: HT-29, 48 h
SW837 = test: Antiproliferative activity against human SW837 cells assessed as cell growth inhibition measured after 48 hrs by MTT assay; format: functional, cell-based; conditions: SW837, 48 h
MDA-MB-231 [9] = test: Antiproliferative activity against human MDA-MB-231 cells assessed as cell growth inhibition measured after 48 hrs by MTT assay; format: functional, cell-based; conditions: MDA-MB-231, 48 h
HeLa [10] = test: Antiproliferative activity against human HeLa cells assessed as cell growth inhibition by WST-1 assay; format: functional, cell-based
DLD-1 = test: Cytotoxicity against human DLD-1 cells assessed as cell growth inhibition measured after 24 hrs by MTT assay; format: functional, cell-based; conditions: DLD-1, 24 h
[11] = Cytotoxicity against HEK293 cells assessed as cell growth inhibition measured after 24 hrs by MTT assay; format: toxicity, cell-based; conditions: human
[12] = Cytotoxicity against human HaCaT cells assessed as cell growth inhibition measured after 24 hrs by MTT assay; format: toxicity, cell-based
MCF7 [13] = test: Cytotoxicity against human MCF7 cells assessed as cell growth inhibition measured after 72 hrs by MTT assay; format: functional, cell-based; conditions: MCF7, 72 h
MDA-MB-231 [14] = test: Cytotoxicity against human MDA-MB-231 cells assessed as cell growth inhibition measured after 72 hrs by MTT assay; format: functional, cell-based; conditions: MDA-MB-231, 72 h
[15] = Cytotoxicity against human MCF-12A cells assessed as cell growth inhibition measured after 72 hrs by MTT assay; format: toxicity, cell-based
A549 [16] = test: Anticancer activity against human A549 cells assessed as cell growth inhibition measured after 48 hrs by MTT assay; format: functional, cell-based; conditions: A549, 48 h
MCF7 [17] = test: Anticancer activity against human MCF7 cells assessed as cell growth inhibition measured after 48 hrs by MTT assay; format: functional, cell-based; conditions: MCF7, 48 h
PA-1 = test: Antiproliferative activity against human PA-1 cells assessed as cell growth inhibition measured after 48 hrs by MTT assay; format: functional, cell-based; conditions: PA-1, 48 h
OVCAR-3 = test: Antiproliferative activity against human OVCAR-3 cells assessed as cell growth inhibition measured after 48 hrs by MTT assay; format: functional, cell-based; conditions: OVCAR-3, 48 h
HepG2 = test: Antiproliferative activity against human HepG2 cells assessed as cell growth inhibition measured after 48 hrs by MTT assay; format: functional, cell-based; conditions: HepG2, 48 h
DU-145 = test: Antiproliferative activity against human DU-145 cells assessed as cell growth inhibition measured after 48 hrs by MTT assay; format: functional, cell-based; conditions: DU-145, 48 h
HeLa [18] = test: Antiproliferative activity against human HeLa cells assessed as cell growth inhibition measured after 48 hrs by MTT assay; format: functional, cell-based
SMMC-7721 = test: Cytotoxicity against human SMMC-7721 cells assessed as cell growth inhibition measured after 48 hrs by MTT assay; format: functional, cell-based; conditions: SMMC-7721, 48 h
Hep 3B2 = test: Cytotoxicity against human Hep3B cells assessed as cell growth inhibition measured after 48 hrs by MTT assay; format: functional, cell-based

Q: With `CCCCCCCCn1c2ccc(/C=C/C(=O)c3ccccc3[N+](=O)[O-])cc2c2cc(C(C)=O)ccc21` as the compound, how does the IC50 (HeLa [1]) read?
A: 5.64 µM

Q: What about the “Ratio IC50” value (HeLa [2]) of the same compound?
A: 2

Q: What does the source list for `CCCCn1c2ccccc2c2cc(/C=N/NC(=O)c3ccncc3)ccc21`?
A: IC50 (ASPC1): 3.42 µM; IC50 (SW1990): 22.4 µM; IC50 [3]: 64.8 µM; IC50 [4]: 65.6 µM

Q: Which IC50 (A498) does the source give for `Cc1c2ccncc2c(C(=O)NCCN(C)C)c2c3cc(CO)ccc3n(C)c12` here?
A: 0.78 µM

Q: What about the IC50 (A549 [5]) of the same compound?
A: 0.65 µM

Q: And the IC50 at 72 h [6]?
A: 7.33 µM

Q: What does the source list for `Cc1c2ccncc2c(C)c2c1[nH]c1c(S(=O)(=O)O)cc(Br)cc12`?
A: IC50 (K562): 35 µM; IC50 at 72 h [7]: > 100 µM; IC50 at 72 h [8]: > 100 µM

Q: What does the source list for `Oc1cc2[nH]c3ccccc3c2cc1CN1CCCCC1`?
A: IC50 (HCT-116): 18 µM; IC50 (HT-29): 18 µM; IC50 (SW837): 16 µM; IC50 (MDA-MB-231 [9]): 16 µM

Q: With `CC(C)=CCCC1(C)C=Cc2c(c(C)cc3c2[nH]c2c(-c4c(O)ccc5c4[nH]c4c6c(c(C)cc45)OC(C)(CCC=C(C)C)C=C6)c(O)ccc23)O1` (stereo not drawn) as the compound, how does the IC50 (HeLa [10]) read?
A: 20 µM

Q: With `COc1ccc2c(c1)[nH]c1c3c(c(C)cc12)OC(C)(C)C=C3` as the compound, how does the IC50 (DLD-1) read?
A: 17.9 µM

Q: And the IC50 at 24 h [11]?
A: > 100 µM

Q: What about the IC50 at 24 h [12] of the same compound?
A: > 100 µM

Q: What does the source list for `CC[n+]1c(/C=C/c2ccc3c(c2)c2ccccc2n3CCCCn2ccnc2)sc2ccccc21`?
A: IC50 (MCF7 [13]): 9.5 µM; IC50 (MDA-MB-231 [14]): 11.4 µM; IC50 at 72 h [15]: > 18 µM

Q: For `O=C1c2[nH]c3ccc(Cl)cc3c2CC[C@@]12[C@@H](c1ccc(Cl)cc1)C1CSCN1C21c2ccccc2-c2nc3ccccc3nc21` (stereo partly drawn), which IC50 (A549 [16]) is on record?
A: 20 µM

Q: What about the IC50 (MCF7 [17]) of the same compound?
A: 21 µM

Q: Which results are given for `COc1ccc2[nH]c3c4c(c(C)cc3c2c1)OC(C)(C)C=C4` [KOENIMBINE]?
A: IC50 (PA-1): 0.2 µM; IC50 (OVCAR-3): 0.2 µM; IC50 (HepG2): 0.2 µM; IC50 (DU-145): 0.2 µM; IC50 (HCT-116): 0.2 µM; IC50 (HeLa [18]): 0.2 µM

Q: For `COc1cccc2c1C(=O)c1c(O)c3c(c(O)c1C2=O)C[C@@](O)(C(=O)CO)C[C@@H]3O[C@H]1C[C@H](N)[C@H](O)[C@H](C)O1` [DOXORUBICIN], which IC50 (SMMC-7721) is on record?
A: 1.02 µM

Q: And the IC50 (Hep 3B2)?
A: 1.02 µM
